What was measured:
[1] = system: Notch signalling in CHO-N2 (N27#11) cells expressing full length human Notch2; experiment: CHO-N2 (N27) luciferase reporter assay, CHO-Delta antagonist assay; format: cell-based; conditions: soluble protein, N27#11 reporter cells co-cultured with CHO-Delta cells overnight
Source text: An adenovirus major late promoter TATA-box motif with BglII and HindIII cohesive ends was generated as follows:
This was cloned into plasmid pGL3-Basic (Promega) between the BgiII and HindIII sites to generate plasmid pGL3-AdTATA.
A TP1 promoter sequence (TP1; equivalent to 2 CBF1 repeats) with BamH1 and BglII cohesive ends was generated as follows:
This sequence was pentamerised by repeated insertion into a BglII site and the resulting TP1 pentamer (equivalent to 10 CBF1 repeats) was inserted into pGL3-AdTATA at the BglII site to generate plasmid pLOR91.
A cDNA clone spanning the complete coding sequence of the human Notch2 gene (see, eg GenBank Accession No AF315356) was constructed as follows. A 3′ cDNA fragment encoding the entire intracellular domain and a portion of the extracellular domain was isolated from a human placental cDNA library (OriGene Technologies Ltd., USA) using a PCR-based screening strategy. […]
CHO-Delta cells (as described above) were maintained in DMEM plus 10% (HI)FCS plus glutamine plus P/S plus 0.5 mg/ml G418. Just prior to use the cells were removed from a T80 flask using 0.02% EDTA solution (Sigma), spun down and resuspended in 10 ml DMEM plus 10%(HI)FCS plus glutamine plus P/S. 10 μl of cells were counted and the cell density was adjusted to 5.0×10^5 cells/ml with fresh DMEM plus 10%(HI)FCS plus glutamine plus P/S. […]

[2] = system: Notch signalling from Jagged1 (A20-Jagged cells, human Jagged1); experiment: Antagonism of A20-Jagged Notch signalling (N27#11 luciferase reporter); format: cell-based; conditions: A20-Jagged cells 1×10^5 per well; IgG4 as control
Source text: The IVS, IRES, Neo and pA elements were removed from plasmid pIRESneo2 (Clontech, USA) and inserted into a pUC cloning vector downstream of a chicken beta-actin promoter (eg see GenBank Accession No E02199). Mouse Delta-1 cDNA (eg see GenBank Accession No NM_007865) was inserted between the actin promoter and IVS elements and a sequence with multiple stop codons in all three reading frames was inserted between the Delta and IVS elements.
The resulting construct was transfected into A20 cells using electroporation and G418 to provide A20 cells expressing mouse Delta1 on their surfaces (A20-Delta).
Corresponding cells (A20-Jagged) were prepared using human Jagged1 cDNA (see e.g. GenBank Accession No U61276).
The procedure of Example was repeated using A20-Delta or A20-Jagged cells (1×10^5 per well) in place of CHO-Delta cells. IgG4 was used as a control.

| Substance | inhibition of Notch signalling from CHO-Delta cells [1] | inhibition of Notch signalling from Jagged1 [2] |
| --- | --- | --- |
| hJagged1EGF1&2-IgG4Fc: human jagged1 sequence up to the end of EGF2 (leader, amino terminal, DSL, EGF1+2) fused to the Fc domain of human IgG4 (SEQ ID NO: 10) | substantially the same inhibition of Notch signalling | – |
| hDelta1-IgG4Fc: fusion protein comprising the extracellular domain of human Delta1 fused to the Fc domain of human IgG4 (SEQ ID NO: 5) | inhibition of Notch signalling | able to inhbit Notch signalling |

— patent US20050137130A1, “Medical treatment” (priority 2001, published 2005)
